Data taken from patent US20200038513A1, “MODULATORS OF FAK PROTEOLYSIS AND ASSOCIATED METHODS OF USE” (ARVINAS OPERATIONS, INC., priority 2018, published 2020).
Read-outs that look alike come from different tables or passages of the source.

Legend:
[1] = Pharmacokinetics of intraperitoneal or intravenous injection in CD1 mice; format: in vivo; settings: for Conc. (ng/mL) Mouse 1 / Conc. (ng/mL) Mouse 2 / Conc. (ng/mL) Mouse 3 / concentration at 0.25 h / concentration at 0.5 h / concentration at 1 h / concentration at 2 h / concentration at 4 h / concentration at 8 h / concentration at 0.033 h / concentration at 0.083 h: CD1 mice plasma; for concentration at 0.25 h / concentration at 0.5 h / concentration at 1 h / concentration at 2 h / concentration at 4 h / concentration at 8 h / AUC(0-t) / half-life / concentration at 0.033 h / concentration at 0.083 h: male, CD1, mouse, plasma
Outline: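 Male CD1 mice, 6-8 weeks old, 3 per group, dosed IV (5 s injection; 10% HP-b-CD, 40 mM sodium acetate, 40 mM NaCl, pH 4.5) or IP (5% EtOH, 5% Solutol HS15 in D5W). Serial dorsal metatarsal vein blood, terminal heart puncture; plasma analysed by LC/MS/MS after acetonitrile precipitation, calibration 1-2000 ng/mL.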

PPB = format: in vitro ADME; settings: plasma
[2] = ip, 10 mg/kg, IP 10 mg/kg, read-out: Conc. (ng/mL) Mouse 1
[3] = ip, 10 mg/kg, IP 10 mg/kg, read-out: Conc. (ng/mL) Mouse 2
[4] = ip, 10 mg/kg, IP 10 mg/kg, read-out: Conc. (ng/mL) Mouse 3
[5] = ip, 10 mg/kg, IP 10 mg/kg, read-out: Mean
[6] = iv, 1 mg/kg, IV 1.0 mg/kg, read-out: Conc. (ng/mL) Mouse 1
[7] = iv, 1 mg/kg, IV 1.0 mg/kg, read-out: Conc. (ng/mL) Mouse 2
[8] = iv, 1 mg/kg, IV 1.0 mg/kg, read-out: Conc. (ng/mL) Mouse 3
[9] = iv, 1 mg/kg, IV 1.0 mg/kg, read-out: Mean

For `Cc1ncsc1-c1ccc(CNC(=O)[C@@H]2C[C@@H](O)CN2C(=O)[C@@H](NC(=O)COCCCOc2ccc(Nc3ncc(C(F)(F)F)c(NCc4cccc(N(C)S(C)(=O)=O)c4)n3)cc2)C(C)(C)C)cc1` [Compound 101, (2S,4R)-1-((S)-3,3-dimethyl-2-(2-(3-(4-((4-((3-(N-methylmethylsulfonamido)benzyl)amino)-5-(trifluoromethyl)pyrimidin-2-yl)amino)phenoxy)propoxy)acetamido)butanoyl)-4-hydroxy-N-(4-(4-methylthiazol-5-yl)benzyl)pyrrolidine-2-carboxamide], the “Conc. (ng/mL) Mouse 1” value ([1]; IP 10 mg/kg, 24 h) was “BLOQ”, the “Conc. (ng/mL) Mouse 2” value ([1]; IP 10 mg/kg, 24 h) was “BLOQ” and the “Conc. (ng/mL) Mouse 3” value ([1]; IP 10 mg/kg, 24 h) was “BLOQ”. The “Conc. (ng/mL) Mouse 1” value ([1]; IV 1.0 mg/kg, 4 h) was “BLOQ”, the “Conc. (ng/mL) Mouse 3” value ([1]; IV 1.0 mg/kg, 4 h) was “BLOQ” and the “Conc. (ng/mL) Mouse 1” value ([1]; IV 1.0 mg/kg, 8 h) was “BLOQ”. The “Conc. (ng/mL) Mouse 2” value ([1]; IV 1.0 mg/kg, 8 h) was “BLOQ”, the “Conc. (ng/mL) Mouse 3” value ([1]; IV 1.0 mg/kg, 8 h) was “BLOQ” and the “Conc. (ng/mL) Mouse 1” value ([1]; IV 1.0 mg/kg, 24 h) was “BLOQ”. The “Conc. (ng/mL) Mouse 2” value ([1]; IV 1.0 mg/kg, 24 h) was “BLOQ”, the “Conc. (ng/mL) Mouse 3” value ([1]; IV 1.0 mg/kg, 24 h) was “BLOQ” and the concentration at 0.25 h [1, 2] was 800 ng/mL. For the same compound, the concentration at 0.25 h [1, 3] was 407 ng/mL, the concentration at 0.25 h [1, 4] was 271 ng/mL and the concentration at 0.25 h [1, 5] was 493 ng/mL. The concentration at 0.5 h [1, 2] was 860 ng/mL, the concentration at 0.5 h [1, 3] was 523 ng/mL and the concentration at 0.5 h [1, 4] was 335 ng/mL. The concentration at 0.5 h [1, 5] was 573 ng/mL, the concentration at 1 h [1, 2] was 1040 ng/mL and the concentration at 1 h [1, 3] was 1520 ng/mL. The concentration at 1 h [1, 4] was 1780 ng/mL, the concentration at 1 h [1, 5] was 1450 ng/mL and the concentration at 2 h [1, 2] was 1630 ng/mL. The concentration at 2 h [1, 3] was 1590 ng/mL, the concentration at 2 h [1, 4] was 1180 ng/mL and the concentration at 2 h [1, 5] was 1470 ng/mL. For the same compound, the concentration at 4 h ([1]; ip, 10 mg/kg, IP 10 mg/kg, 4 h, read-out: Conc. (ng/mL) Mouse 1) was 378 ng/mL, the concentration at 4 h ([1]; ip, 10 mg/kg, IP 10 mg/kg, 4 h, read-out: Conc. (ng/mL) Mouse 2) was 1090 ng/mL and the concentration at 4 h ([1]; ip, 10 mg/kg, IP 10 mg/kg, 4 h, read-out: Conc. (ng/mL) Mouse 3) was 1250 ng/mL. The concentration at 4 h ([1]; ip, 10 mg/kg, IP 10 mg/kg, 4 h, read-out: Mean) was 906 ng/mL, the concentration at 8 h ([1]; ip, 10 mg/kg, IP 10 mg/kg, 8 h, read-out: Conc. (ng/mL) Mouse 1) was 24.1 ng/mL and the concentration at 8 h ([1]; ip, 10 mg/kg, IP 10 mg/kg, 8 h, read-out: Conc. (ng/mL) Mouse 2) was 145 ng/mL. The concentration at 8 h ([1]; ip, 10 mg/kg, IP 10 mg/kg, 8 h, read-out: Conc. (ng/mL) Mouse 3) was 77.1 ng/mL, the concentration at 8 h ([1]; ip, 10 mg/kg, IP 10 mg/kg, 8 h, read-out: Mean) was 82 ng/mL and the AUC(0-t) ([1]; ip, 10 mg/kg, read-out: AUClast (h * ng/mL) IP) was 6500 ng·h/mL. For the same compound, the half-life ([1]; ip, 10 mg/kg, read-out: T ½ (h) IP (converted)) was 1.22 h, the concentration at 0.033 h [1, 6] was 2100 ng/mL and the concentration at 0.033 h [1, 7] was 1800 ng/mL. The concentration at 0.033 h [1, 8] was 2310 ng/mL, the concentration at 0.033 h [1, 9] was 2070 ng/mL and the concentration at 0.083 h [1, 6] was 356 ng/mL. It also gave a concentration at 0.083 h [1, 7] of 303 ng/mL, a concentration at 0.083 h [1, 8] of 432 ng/mL and a concentration at 0.083 h [1, 9] of 364 ng/mL. For the same compound, the concentration at 0.25 h [1, 6] was 50.1 ng/mL, the concentration at 0.25 h [1, 7] was 47.7 ng/mL and the concentration at 0.25 h [1, 8] was 47 ng/mL. For the same compound, the concentration at 0.25 h [1, 9] was 48.3 ng/mL, the concentration at 0.5 h [1, 6] was 20.9 ng/mL and the concentration at 0.5 h [1, 7] was 28.6 ng/mL. For the same compound, the concentration at 0.5 h [1, 8] was 27.7 ng/mL, the concentration at 0.5 h [1, 9] was 25.7 ng/mL and the concentration at 1 h [1, 6] was 8.68 ng/mL. It also gave a concentration at 1 h [1, 7] of 11.6 ng/mL, a concentration at 1 h [1, 8] of 9.52 ng/mL and a concentration at 1 h [1, 9] of 9.9 ng/mL. For the same compound, the concentration at 2 h [1, 6] was 5.32 ng/mL, the concentration at 2 h [1, 7] was 7.86 ng/mL and the concentration at 2 h [1, 8] was 5.45 ng/mL. The concentration at 2 h [1, 9] was 6.21 ng/mL, the concentration at 4 h ([1]; iv, 1 mg/kg, IV 1.0 mg/kg, 4 h, read-out: Conc. (ng/mL) Mouse 2) was 4.59 ng/mL and the AUC(0-t) ([1]; iv, 1 mg/kg, read-out: AUClast (h * ng/mL) IV) was 268 ng·h/mL. It also gave a half-life ([1]; iv, 1 mg/kg, read-out: T ½ (h) IV (converted)) of 1.26 h and a fraction unbound (PPB) of 0.0065.
